Measurements published in PMC8222394 (Nature Communications, 2021).
“And” between values parts separate entries of the source, which are not always exact repeats. Identical values can stand only once. Like-named read-outs stand apart in the source and are kept apart here.

Legend:
[1] = parameters: method as in Selleck L1300 library file; details: ref Selleck L1300 library file, cited from earlier work
SARS-CoV-2 pseudovirus [2] = format: cell-based
TMPRSS2 = TMPRSS2 (Homo sapiens, UniProt O15393); experiment: TMPRSS2 activity assay (Boc-Gln-Ala-Arg-MCA fluorescence); format: biochemical; parameters: purchased LSBio; details: replicates
Experimental: Fluorescence (380-15 nm excitation/470-20 nm emission) of the samples was monitored over 4:45 h and the slope of the curves was calculated by linear regression analysis and used as output for TMPRSS2 activity.

[3] = human, cited from earlier work
in vitro = details: human
SARS-CoV-2 pseudovirus [4] = experiment: microbe, parasite or virus in culture; format: cell-based; details: for IC50: Severe acute respiratory syndrome-related coronavirus, Caco-2, read-out: In vitro IC50 (viral entry)
[5] = tested on: TMPRSS2-HiBiT-BEAS-2B cells
B-RafV600E = tested on: B-RafV600E; parameters: method as in selleckchem.com; details: ref selleckchem.com, cited from earlier work

Sequence of TMPRSS2 (O15393 106-492): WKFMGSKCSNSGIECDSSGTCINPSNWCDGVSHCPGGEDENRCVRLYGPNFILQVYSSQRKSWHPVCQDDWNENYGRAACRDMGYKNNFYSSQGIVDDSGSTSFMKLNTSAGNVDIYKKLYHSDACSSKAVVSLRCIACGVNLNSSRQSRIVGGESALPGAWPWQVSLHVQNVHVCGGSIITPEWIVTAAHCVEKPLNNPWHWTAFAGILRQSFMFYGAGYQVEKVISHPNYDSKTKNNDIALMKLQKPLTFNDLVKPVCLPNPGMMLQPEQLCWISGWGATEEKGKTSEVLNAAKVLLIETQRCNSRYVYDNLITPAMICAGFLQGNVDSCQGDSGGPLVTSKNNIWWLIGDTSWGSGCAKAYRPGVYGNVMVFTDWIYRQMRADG

## C[C@H]1O[C@H](O[C@H]2[C@H](O)[C@@H](O)[C@@H](O[C@H]3[C@H](O)[C@@H](O)C(O)O[C@@H]3CO)O[C@@H]2CO)[C@H](O)[C@@H](O)[C@@H]1N[C@H]1C=C(CO)[C@@H](O)[C@H](O)[C@H]1O (stereo partly drawn) [Acarbose]
[1]
  DMSO (mM)Max Solubility: 154.89 mM
  DMSO (mg/mL)Max Solubility: 100.00 mg/mL
[1]; water
  water (mM)Max Solubility: 154.89 mM
  water (mg/mL)Max Solubility: 100.00 mg/mL

## CNC(=O)c1ccccc1Sc1ccc2c(/C=C/c3ccccn3)n[nH]c2c1 [Axitinib]
[1]
  DMSO (mM)Max Solubility: 90.56 mM
  DMSO (mg/mL)Max Solubility: 35.00 mg/mL
[1]; water
  water (mg/mL)Max Solubility: <1 mg/mL

## CN(C)C(=O)COC(=O)Cc1ccc(OC(=O)c2ccc(NC(=N)N)cc2)cc1 [Camostat]
SARS-CoV-2 pseudovirus [2]
  signal relative to Vehicle (FigS7 source data): 0.7432 and 0.6624 and 0.6548
TMPRSS2; 0.08 µM
  TMPRSS2 activity (FigS9 source data): -0.0086 and -0.0028 and 0.0044 and -0.0059
TMPRSS2; 0.4 µM
  TMPRSS2 activity (FigS9 source data): -0.037 and -0.0342 and -0.033 and -0.0254
TMPRSS2; 2 µM
  TMPRSS2 activity (FigS9 source data): -0.0401 and -0.0361 and -0.044 and -0.0525

## COCCOC(=O)C1=C(C)NC(C)=C(C(=O)OC/C=C/c2ccccc2)C1c1cccc([N+](=O)[O-])c1 (stereo not drawn) [Cilnidipine]
[3]; 10 mg Oral (QD)
  Cmax: 18.1 nM
In vitro
  CC50: > 10 µM
SARS-CoV-2 pseudovirus [4]
  viral entry: effective in reducing viral entry
  IC50: ~3 µM

## Cc1nc(Nc2ncc(C(=O)Nc3c(C)cccc3Cl)s2)cc(N2CCN(CCO)CC2)n1 [Dasatinib]
SARS-CoV-2 pseudovirus [2]
  signal relative to Vehicle (FigS7 source data): 0.6399 and 0.7584 and 0.6593
[3]; 140 mg Oral (QD)
  Cmax: 307 nM
In vitro
  CC50: > 10 µM
SARS-CoV-2 pseudovirus [4]
  viral entry: effective in reducing viral entry
  IC50: > 10 µM

## COC(=O)Nc1nc2cc(C(=O)c3ccc(F)cc3)ccc2[nH]1 [Flubendazole]
[5]; conc 3
  ATP Glo: 0.991 and 1.045 and 1.023

## Cc1nc(C(=O)NCC(=O)O)c(O)c2ccc(Oc3ccccc3)cc12 [Roxadustat (FG-4592), Roxadustat]
[1]
  DMSO (mM)Max Solubility: 198.67 mM
  DMSO (mg/mL)Max Solubility: 70.00 mg/mL
[1]; water
  water (mg/mL)Max Solubility: <1 mg/mL

## Cc1coc2c1C(=O)C(=O)c1c-2ccc2c1CCCC2(C)C [Tanshinone IIA]
[5]; conc 0.01
  ATP Glo: 1.137 and 1.427 and 1.128

## CCCS(=O)(=O)Nc1ccc(F)c(C(=O)c2c[nH]c3ncc(-c4ccc(Cl)cc4)cc23)c1F [Vemurafenib (PLX4032, RG7204), Vemurafenib]
B-RafV600E; cell-free assay
  IC50: 31 nM
B-RafV600E; enzymatic assays
  selectivity for B-RafV600E over wild-type B-Raf: 10 fold
[1]
  DMSO (mM)Max Solubility: 197.99 mM
  DMSO (mg/mL)Max Solubility: 97.00 mg/mL
[1]; water
  water (mg/mL)Max Solubility: <1 mg/mL

## CC1(C)CCC(CN2CCN(c3ccc(C(=O)NS(=O)(=O)c4ccc(NCC5CCOCC5)c([N+](=O)[O-])c4)c(Oc4cnc5[nH]ccc5c4)c3)CC2)=C(c2ccc(Cl)cc2)C1 [Venetoclax]
SARS-CoV-2 pseudovirus [2]
  signal relative to Vehicle (FigS7 source data): 0.618 and 0.6416 and 0.6544
[3]; 400 mg Oral (QD)
  Cmax: 1270 nM
In vitro
  CC50: > 10 µM
SARS-CoV-2 pseudovirus [4]
  viral entry: effective in reducing viral entry
  IC50: > 10 µM

## Verteporfin [reference compound]
[5]
  CC50: > 10 µM
